Reference: patent US8017350B2, “Glimepiride- and insulin-induced glycosylphosphatidylinositol-specific phospholipase C regulation” (Sanofi-Aventis Deutschland GmbH, priority 2004, dated 2011)
“Also recorded” adds a separate entry of the source.

Legend:
GPI-PLC (T. brucei) = target: T1, GPI-PLC (T. brucei) (Trypanosoma brucei brucei, UniProt P09194); test: GPI-PLC (T. brucei) assay, human placental aP substrate, TX-114 partitioning; format: biochemical
T1 construct: purchased Oxford Glycosystems (Oxford, UK)
Protocol: GPI-PLD (rat serum) was assayed according to “Hari et al. (1997) Biochim. Biophys. Acta 1355: 293-302” by incubation with 10 μl of human placental aP solution (100 U/ml in 10 mM Hepes/NaOH, pH 7.0, 150 mM NaCl) in 100 μl of 200 mM Tris/maleate (pH 7.0) and 1% Nonidet P-40 for 10 min at 37° C. and subsequent termination of the reaction by addition of 0.4 ml of ice-cold stop buffer (10 mM Hepes/NaOH, pH 7.0, 150 mM NaCl, 0.1 mM MgCl2 and 0.01 mM zinc acetate). GPI-PLC (T. brucei) was assayed as described in “Mensa-Wilmot et al. (1995) Methods Enzymol. 250: 641-655” by incubation with 5 μl of human placental aP solution (see above) in 50 μl of 50 mM Tris/HCl (pH 8.0), 0.25% Nonidet P-40 and 5 mM EDTA for 30 min at 37° C. and subsequent termination of the reaction by addition of 0.45 ml of stop buffer. PI-PLC (B. cereus) and adipocyte GPI-PLC (5-25 μg plasma membranes or hc/lcDIGs) were assayed by incubation with 10 μl of bovine erythrocyte acetylcholinesterase (AChE) solution (12 U/ml in 10 mM Tris/HCl, pH 7.4, 144 mM NaCl, 0.1% TX-100) in 100 μl of 20 mM Hepes/KOH (pH 7.8), 144 mM NaCl, 0.1% TX-100, 0.2 mM MgCl2 for 1 h at 25° C. and subsequent termination by adding 5 μl of glacial acetic acid and then 0.4 ml of 10 mM Tris/HCl (pH 7.4), 144 mM NaCl. Each reaction mixture was subjected to TX-114 partitioning (see below).
Pelleted hc/lcDIGs (10-50 μg protein) or (G)PI-PLC reaction mixtures (0.5 ml) were separated into amphiphilic and hydrophilic proteins using partitioning between TX-114-enriched and depleted phases according to “Bordier, C., (1981) J. Biol, Chem. […]” by suspending in 1 ml of ice-cold TX-114 (1%), 25 mM Tris/HCl (pH 7.4), 144 mM NaCl or mixing with 0.5 ml of ice-cold TX-114 (2%), respectively. After incubation for 1 h on ice, the mixture was layered onto a cushion of 0.4 ml of 0.25 M sucrose and 25 mM Tris/HCl (pH 7.4) on ice. Phase separation was induced by warming up to 37° C. and subsequent centrifugation (10,000×g, 1 min). After re-extraction of the lower TX-114-enriched phase, aliquots of the pooled upper TX-114-depleted phase were measured for 5′-Nuc, aP and AChE activity or precipitated (15 polyethylene glycol 4000) for SDS-PAGE analysis.
Table 1: GPI-PLC of hcDIGs from rat adipocytes, GPI-PLC from T. brucei and PI-PLC from B. cereus were incubated with solubilized and partially purified bovine erythrocyte AChE or human placental aP in the absence or presence of increasing concentrations (0.05 μM-1 mM) of the inhibitors indicated under appropriate conditions (see Materials and Methods). Cleavage rate was calculated from the amount of hydrophilic AChE and aP activity recovered with the TX-114-depleted phase upon TX-114 partitioning. Means+SD from at least 3 independent incubations with partitioning/enzyme assays in quadruplicate are given. n.a., not applicable.
Purified (G)PI-PLC/D from B. cereus, rat serum and T. brucei as well as total plasma membranes (PM) and hc/lcDIGs prepared from isolated rat adipocytes were incubated (10 min, 30° C.) with increasing concentrations of GPI-2350 and then assayed for amphiphilic-to-hydrophilic conversion of AChE and aP by TX-114 partitioning (see Materials and Methods). The lipolytic activity was calculated as % of the control reaction in the absence of GPI-2350 (set at 100%). Means+SD of at least 4 independent incubations with AChE and aP activity measurements in triplicate each are given.

[1] = system: pp59Lyn and Gce1 interaction with caveolin-1 in rat adipocytes; test: dissociation of signaling proteins from caveolin (caveolin-1 immunoprecipitates of hcDIGs); format: cell-based; conditions: 50 μM
Protocol: Solubilized DIGs (see above, 5-20 μg protein) were precleared by incubation with protein A/G-Sepharose and subsequent centrifugation (10,000×g, 5 min). The supernatant was incubated with anti-caveolin-1 antibodies (1:1000) preadsorbed on protein A/G-Sepharose in 1 ml of 10 mM Tris/HCl (pH 7.4), 150 mM NaCl, 1% TX-100 for 1 h at 4° C. The immune complexes were washed twice with the same buffer and then twice with buffer lacking TX-100 and finally subjected to SDS-PAGE performed in the absence of β-mercaptoethanol. The recovery of immunoprecipitated caveolin was normalized by homologous immunoblotting with anti-caveolin antibodies of the same blot following stripping of the membrane.
Polypeptides separated by SDS-PAGE were transferred to polyvinylidene difluoride membranes using the semidry procedure as described in “Müller, G. et al., (2001) Mol. Cell. Biol. 21: 4553-4567”. Washed membranes were incubated with anti-caveolin-1 (1:2000), anti-pp59^Lyn (1:1250), anti-aP (1:500), anti-5′-Nuc (1:750) and anti-IRS-1 (1:2000) antibodies for 4 h at 15° C. Washed membranes were incubated with horseradish peroxidase-coupled secondary goat anti-mouse (1:2000) or goat anti-rabbit IgG (1:4000) antibodies. Labeled proteins were visualized by enhanced chemiluminescence.
FIG. 6: Effect of GPI-2350 on the glimepiride/insulin-induced dissociation of signaling proteins from caveolin. Isolated rat adipocytes were treated (5 min, 37° C.) without or with GPI-2350 (left panels, 50 μM; right panels, increasing conc.) and then incubated (120 min, 37° C.) in the absence or presence of insulin (10 nM) or glimepiride (20 μM). hcDIGs were prepared from the adipocytes and then solubilized. Caveolin-1 immunoprecipitates prepared from the solubilized hcDIGs were assayed for the presence of pp59^Lyn and Gce1 by immunoblotting and photoaffinity-labeling, respectively. […]

T1 sequence (P09194 whole entry): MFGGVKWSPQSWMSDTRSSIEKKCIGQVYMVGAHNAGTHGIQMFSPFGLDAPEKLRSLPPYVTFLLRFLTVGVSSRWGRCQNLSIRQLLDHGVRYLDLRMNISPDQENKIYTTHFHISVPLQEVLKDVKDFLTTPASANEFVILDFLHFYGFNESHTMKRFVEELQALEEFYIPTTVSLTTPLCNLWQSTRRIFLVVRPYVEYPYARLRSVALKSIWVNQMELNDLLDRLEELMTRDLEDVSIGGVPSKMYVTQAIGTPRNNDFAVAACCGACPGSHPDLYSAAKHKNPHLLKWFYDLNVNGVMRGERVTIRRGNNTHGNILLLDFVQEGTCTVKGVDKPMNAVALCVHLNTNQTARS

CCCCCCCCCCCCP1(=O)O[C@@H]2[C@H](O)[C@@H](O)[C@H](O)[C@@H](O)[C@@H]2O1 (some centres unmarked) [GPI-2350, myo-inositol-1,2-cyclo-dodecylphosphonic acid]
IC50 (GPI-PLC (T. brucei); IC50, Table 1, inhibitor 0.05 μM-1 mM): 2000 to 5000 nM | IC50 (GPI-PLC (T. brucei); apparent IC50, FIG. 2): 2000 nM | inhibition at 1000 µM (GPI-PLC (T. brucei); read-out: inhibition % at 1 mM): 85% | reversal of half-maximal inhibition (GPI-PLC (T. brucei); upon 10-fold dilution with excess of fresh GPI-protein substrate): completely reversed | effect on insulin-/glimepiride-induced dissociation of pp59Lyn and Gce1 from caveolin [1]: completely abrogated; also recorded: almost complete blockade
